Legend:
Assay type in all cases: cell-based, human
[1] = test system: K562 cell line; assay: Testing on K562 leukemia cell line (MTT cytotoxicity); conditions: K562 cells, 72 h incubation, preliminary screening, read-out: K562 (CML) IC50
Method: (§1) Retinoates of harringtonines described in this invention were tested on K562 cell line which is derived from the pleural effusion of a person with chronic myelogenous leukemia (CML, bcr-abl positive) in terminal blast crises (Lozzio and Lozzio, Blood, 1975, p321). The cell line was purchased from ATCC (American Tissue Culture Collection) and grown in RPMI medium supplemented with 10% heat-inactivated fetal calf serum, 2 mmol/L glutamine, […] penicillin and […] streptomycin. All tested products were initially dissolved in 2N HCl (pH=2) (alkaloid base) or in aqueous solvent (salt) or in DMSO (retinoids), supplemented with ultrasound treatment during 1 h. Working concentrations were made by dilution in culture medium (pH 7). Cells in exponential growth phase were placed into 96-microwell plates in concentration 3x10^4/mL (total volume 200 µL/well) and incubated with drugs for 72 h at 37° C. in 5% CO2 humidified atmosphere. Following incubation, 28 µL of MTT 3-(4,5 dimethylthiazol-2-yl)-2,5 tetrazolium bromide] dye solution (Sigma, St. Louis, Mo.) was added to each well. During the following 6 h of incubation at 37° C., the purple formazan product was formed by conversion of the yellow MTT salt in the mitochondria of the viable cells. The resulting precipitate was dissolved in DMSO and the amount of converted MTT was quantified in an ELISA reader (MR 5000, Dynatech). Each product was tested in triplicate (3x8 wells). Every test contained at least one plate with HHT as control, added in the same concentration as the tested products.

[2] = test system: HL-60 cell line; assay: Testing on HL-60 leukemia cell line (MTT cytotoxicity); conditions: HL-60 cells, medium with 20% fetal bovine serum, preliminary screening, read-out: HL60 (APL) IC50
Method: as §1
Retinoates of harringtonines described in this invention were tested on HL-60 cell line, derived from acute promyelocytic leukemia (APL) cells. HL-60 is a promyelocytic cell line derived by S.J. Collins, et al. (Proc. Natl. Acad. Sci. USA 1978 p2458). Peripheral blood leukocytes were obtained by leukopheresis from a person with APL (Gallagher R, et al. Blood 1978, p713) The cell line was purchased from ATCC (American Tissue Culture Collection) and the base growth medium was also completed with fetal bovine serum but at a final concentration of 20%, otherwise the same method than the one of example 10 was used.
Preliminary screening using this tumor cell lines are gathered in table 1.

[3] = test system: MDA-MB-468; assay: Testing on breast cancer cell lines, sulforhodamine B (SRB) cell viability assay; conditions: MDA-MB-468 breast cancer cells, preliminary screening, read-out: M DA-MB-468 (BC) IC50
Method: Operating Procedure were performed as described in the recent paper of Yakhni et al [Yakhni AM J CANCER RES 2019; 9(5) in press "Homoharringtonine, on approved anti-leukemia drug, suppresses triple negative breast cancer growth through a rapid reduction of anti-apoptotic protein abundance"]
The cell lines used in this study were MDA-MB-231 (ATCC® HTB-26™), MDA-MB-468 (ATCC® HTB-132™), MDA-MB-157 (ATCC® HTB-24™) and CAL-51. Those lines were chosen to represent the BRCA1/2 non-mutated TNBC transcriptomic subtypes, currently most in need of efficacious treatment due to lower sensibility of BRCA1 wild-type TNBC to the DNA-damaging chemotherapy (Masuda et al., Clin Cancer Res. 2013, p5533; Jiang et al., PLoS Med. 2016, pe1002193; Park et al. ESMO Open. 2018, pe000357). CAL-51 line represents the mesenchymal transcriptomic subtype whereas MDA-MB-157 and MDA-MB-231 represent the mesenchymal stem-like subtype (Lehmann et al. J Clin Invest. 2011, p2750). MDA-MB-468 was used as a model of aggressive, PTEN-negative TNBC, with hyperactivated EGFR signaling pathway due to EGFR amplification (Filmus et al., Biochem Biophys Res Commun. 1985, p898). MDA-MB-468 transcriptome classifies it into the basal-like 1 subtype (49). The MDA lines were purchased from the American Type Culture Collection (ATCC, Manassas, VA, USA). The CAL-51 was kindly provided by Dr Gerard Milano, from the Centre Antoine Lacassagne, Nice, France, where the line has been established (Gioanni et al., Br J Cancer 1990, p8). After initial expansion, the cell line stock vials were conserved, in liquid nitrogen, at the Biological Resource Center of Jean Perrin Comprehensive Cancer Center (biobank ID BB-0033-00075, Clermont-Ferrand, France). The MDA cell lines were cultured in the Leibovitz L-15 medium, whereas CAL-51 line was maintained in DMEM (both media from Invitrogen Life Technologies, Carlsbad, CA, USA). The media were supplemented with 10% heat-inactivated fetal bovine serum and […] gentamicin. CAL-51 line was kept at 37°C, in a humidified atmosphere with 5% CO2; the MDA lines were kept under the same conditions, however, without CO2, in a free gas exchange with atmospheric air. All cell lines were maintained in monolayer culture, in the sub-confluent status, with no more 30 passages of the cells thawed from the stock vial.
Homoharringtonine was supplied by LeukePharma Inc. (Houston, TX, USA) as water-soluble, crystalline tartaric acid salt. Initial stock solution of HHT-tartrate was prepared at 10 mM in sterile deionized water, aliquoted and kept at -80°C. For each experiment, a fresh HHT solution was prepared by dissolving the HHT stock in phosphate-buffered saline (PBS, GIBCO™, Invitrogen, Cergy-Pontoise, France).
Cell viability was assessed using the sulforhodamine B (SRB) assay (Sigma-Aldrich, St Louis, MO, USA) according to the method described by Vichai and Kirtikara (Nat Protoc. 2006, p1112). Cells were seeded in 96-well plates, at 5x10^3 or 1x10^3 cells/well (the MDA cell lines and CAL-51, respectively), left overnight to adhere and then treated with growing concentrations of HHT for 24h, 48h or 72h. After incubation with the drug, cells were washed twice with PBS and left for 72 h in the corresponding complete culture medium. Then the cells were fixed with trichloroacetic acid (final concentration 10%) at 4°C for 1 h, followed with plate washing with water five times, air drying and staining with 0.4% SRB dissolved in 1% acetic acid, at room temperature, for 30 min. The plates were subsequently washed four times with 1% acetic acid to remove unbound stain. To solubilize the protein-bound dye, 10 mM Tris base solution was added to each well. The cell viability, estimated through the present protein biomass, was determined by measuring optical density of the dye, using a spectrophotometer at wavelength of 540 nm (BMG Labtech, Ortenberg, Germany).
Preliminary screening using these tumor cell lines are gathered in table 1.

Compound	IC50 [1] [nM]	IC50 [2] [nM]	IC50 [3] [nM]
COC(=O)CC(O)(CCCC(C)(C)O)C(=O)OC1C(OC)=CC23CCCN2CCc2cc4c(cc2C13)OCO4.O=C(O)C=Cc1ccc(-c2ccc(O)c(C34CC5CC(CC(C5)C3)C4)c2)cc1 (stereo not drawn) [Example 6, homoharringtonine "adarotenoate"]	< 50	< 100	–
OP5215 all-trans-retinoate [Example 24]	< 50	< 100	–
CC1=C(/C=C/C(C)=C/C=C/C(C)=C/C(=O)O)C(C)(C)CCC1.COC(=O)C[C@](O)(CCCC(C)(C)O)C(=O)O[C@@H]1C(OC)=C[C@]23CCCN2CCc2cc4c(cc2[C@H]13)OCO4 (relative stereo) [Example 1, homoharringtonine all-trans-retinoate]	< 50	< 100	< 50
COC(=O)C[C@](O)(CCC(C)(C)O)C(=O)O[C@@H]1C(OC)=C[C@]23CCCN2CCc2cc4c(cc2[C@H]13)OCO4.COc1ccc(-c2ccc3cc(C(=O)O)ccc3c2)cc1C12CC3CC(CC(C3)C1)C2 [Example 9, harringtonine "adapalenoate"]	< 100	–	–
CC(=Cc1ccc(C(=O)O)cc1)c1ccc2c(c1)C(C)(C)CCC2(C)C.COC(=O)CC(O)(CCCC(C)(C)O)C(=O)OC1C(OC)=CC23CCCN2CCc2cc4c(cc2C13)OCO4 (stereo not drawn) [Example 13, homoharringtonine arotinoate]	< 50	–	–
COC(=O)C[C@](O)(CCCC(C)(C)O)C(=O)O[C@@H]1C(OC)=C[C@]23CCCN2CCc2cc4c(cc2[C@H]13)OCO4.COc1ccc(-c2ccc3cc(C(=O)O)ccc3c2)cc1C12CC3CC(CC(C3)C1)C2 [Example 8, homoharringtonine "adapalenoate"]	< 50	< 100	< 50
CC1(C)CCC(C)(C)c2cc(NC(=O)c3ccc(C(=O)O)cc3)ccc21.COC(=O)CC(O)(CCCC(C)(C)O)C(=O)OC1C(OC)=CC23CCCN2CCc2cc4c(cc2C13)OCO4 (stereo not drawn) [Example 5, homoharringtonine tamibarotenoate]	< 20	< 50	< 20
OP5215 acitretinate [Example 25]	< 20	< 50	< 20
CC(C=CC1=C(C)CCCC1(C)C)=CC=CC(C)=CC(=O)O.COC(=O)CC(O)(CCCC(C)(C)O)C(=O)OC1C(OC)=CC23CCCN2CCc2cc4c(cc2C13)OCO4 (stereo not drawn) [Example 3, homoharringtonine 13-cis-retinoate]	< 50	–	–
CC1=C(/C=C/C(C)=C/C=C/C(C)=C/C(=O)O)C(C)(C)CCC1.COC(=O)C[C@@]1(C(=O)O[C@@H]2C(OC)=C[C@]34CCCN3CCc3cc5c(cc3[C@H]24)OCO5)CCCC(C)(C)O1 (relative stereo) [Example 18, Anhydrohomoharringtonine all-trans-retinoate]	< 50	< 100	< 50
COC(=O)CC(O)(CCCC(C)(C)O)C(=O)OC1C(OC)=CC23CCCN2CCc2cc4c(cc2C13)OCO4.COc1cc(C)c(C=CC(C)=CC=CC(C)=CC(=O)O)c(C)c1C (stereo not drawn) [Example 4, homoharringtonine "acitretinoate"]	< 50	< 100	–
COC(=O)CC(O)(CCC(C)(C)O)C(=O)OC1C(OC)=CC23CCCN2CCc2cc4c(cc2C13)OCO4.COc1cc(C)c(C=CC(C)=CC=CC(C)=CC(=O)O)c(C)c1C (stereo not drawn) [Example 17, harringtonine acitretinate]	< 50	< 100	–
COC(=O)CC(O)(CCCC(C)(C)O)C(=O)O[C@@H]1C(OC)=C[C@]23CCCN2CCc2cc4c(cc2[C@H]13)OCO4.Cc1ccc(C2=CCC(C)(C)c3ccc(C#Cc4ccc(C(=O)O)cc4)cc32)cc1 (stereo partly drawn) [Example 16, Butanedioic acid, 2-hydroxy-2-(4-hydroxy-4-methylpentyl)-, 1-[(1S,3aR,14bS)-1,5,6,8,9,14b-hexahydro-2-methoxy-4H-cyclopenta[a][1,3]dioxolo[4,5-h]pyrrolo[2,1-b][3]benzazepin-1-yl]4-methyl ester, 4-[[5,6-dihydro-5,5-dimethyl-8-(4-methylphenyl)-2-naphthalenyl]ethynyl]benzoate]	< 50	< 100	–
COC(=O)CC1(C(=O)OC2C(OC)=CC34CCCN3CCc3cc5c(cc3C24)OCO5)CCCC(C)(C)O1.COc1cc(C)c(C=CC(C)=CC=CC(C)=CC(=O)O)c(C)c1C (stereo not drawn) [Example 19, anhydrohomoharringtonine "acitretinoate"]	> 100	–	> 100
COC(=O)CC(O)(CCCC(C)(C)O)C(=O)O[C@@H]1C(OC)=C[C@]23CCCN2CCc2cc4c(cc2[C@H]13)OCO4.O=C(O)c1ccc(-c2ccc3cc(O)c(C45CC6CC(CC(C6)C4)C5)cc3c2)cc1 (stereo partly drawn) [Example 12, Butanedioic acid, 2-hydroxy-2-(4-hydroxy-4-methylpentyl)-, 1-[(1S,3aR,14bS)-1,5,6,8,9,14b-hexahydro-2-methoxy-4H-cyclopenta[a][1,3]dioxolo[4,5-h]pyrrolo[2,1-b][3]benzazepin-1-yl]4-methyl ester, 4-(6-Hydroxy-7-tricyclo[3.3.1.1^3,7]dec-1-yl-2-naphthalenyl)benzoate]	< 50	< 100	< 50
CC(C=CC1=C(C)CCCC1(C)C)=CC=CC(C)=CC(=O)O.COC(=O)CC(O)(CCC(C)(C)O)C(=O)OC1C(OC)=CC23CCCN2CCc2cc4c(cc2C13)OCO4 (stereo not drawn) [Example 2, harringtonine all-trans-retinoate]	< 100	> 100	–
CC(=Cc1ccc(C(=O)O)cc1)c1ccc2c(c1)C(C)(C)CCC2(C)C.COC(=O)CC(O)(CCC(C)(C)O)C(=O)OC1C(OC)=CC23CCCN2CCc2cc4c(cc2C13)OCO4 (stereo not drawn) [Example 14, harringtonine arotinoate]	< 100	–	–

Reference: patent EP3763715A1, “HARRINGTONINES SALTS, IN PARTICULAR RETINOATES, THEIR PROCESS OF PREPARATION AND THEIR USES IN THE TREATMENT OF LEUKEMIAS, CANCERS, AUTOIMMUNE, SKIN, ALZHEIMER'S AND INFLAMMATORY BOWEL DISEASES AND VIRAL INFECTIONS, COMBINED WITH MYELOPOIESIS STIMULATING AGENTS” (Robin, Jean-Pierre, priority 2019, dated 2021)
